# Experimental data as given in patent publication US8183238B2, “Bicyclic and tricyclic compounds as KAT II inhibitors” (priority 2009, dated 2012).
# Where a name gives a salt, the structure may show the parent alone.
# Molecular target: human KAT II (hKAT II) enzyme (Homo sapiens, UniProt Q8N5Z0)
# Experiment: KAT II Inhibition Spectra Assay
# Format: biochemical
# Settings: not given
# Method: Formation of kynurenic acid (KYNA) is indirectly assessed by a decrease in light absorbance at 370 nm (OD370) as the L-kynurenine (KYN) substrate is converted by the human KAT II (hKAT II) enzyme into KYNA. An inhibitor would therefore inhibit the decrease in OD370.
# The protocol was performed by placing the following reagents into a Costar 384 well black plate (30 μL total assay volume/well): • 10 μL of 3× concentrated compound; • 10 μL of 3× concentrated substrate mix (BGG (Sigma G-5009); 3 mM L-Kynurenine in 150 mM Tris Acetate (Sigma K3750); 3 mM α-ketoglutaric acid in 150 mM Tris Acetate (Sigma K2010); and 210 μM pyridoxal 5-phosphate (PLP) in 150 mM Tris Acetate (Sigma 9255)); and • 10 μL of 3× concentrated enzyme (15 nM enzyme in 150 mM Tris Acetate with 0.3% bovine serum).
# Plates were sealed and incubated at 37° C. for 15-20 h before reading OD370 on a SpectraMax Plus plate reader. IC50s were generated by comparing the efficacy of compounds across a concentration range to inhibit a reduction in the OD370 value relative to assay wells with DMSO added in place of concentrated compound.
# Sequence of human KAT II (hKAT II) enzyme (Q8N5Z0 30-425): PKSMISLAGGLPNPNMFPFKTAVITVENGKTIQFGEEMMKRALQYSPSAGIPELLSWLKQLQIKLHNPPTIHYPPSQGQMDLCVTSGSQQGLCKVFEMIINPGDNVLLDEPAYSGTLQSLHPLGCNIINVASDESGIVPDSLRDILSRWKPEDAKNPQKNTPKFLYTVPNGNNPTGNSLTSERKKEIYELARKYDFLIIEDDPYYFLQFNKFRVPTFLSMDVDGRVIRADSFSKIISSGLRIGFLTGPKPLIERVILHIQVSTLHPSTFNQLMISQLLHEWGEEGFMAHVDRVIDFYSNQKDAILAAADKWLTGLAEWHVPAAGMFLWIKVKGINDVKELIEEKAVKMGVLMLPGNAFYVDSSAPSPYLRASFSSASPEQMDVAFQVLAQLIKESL
row,SMILES,IC50 [nM]
1,"CN(C)C(=O)ON1C(=O)[C@@H](N)Cc2ccccc21 [Example 73, (3S)-3-amino-1-[(dimethylcarbamoyl)oxy]-3,4-dihydroquinolin-2(1H)-one, hydrochloride salt]",1090

# Same assay, conditions: Table 5; hKAT II, decrease in OD370, 37° C., 15-20 h; read-out: KATII IC50
row,IC50 [nM],SMILES
1,33,N#Cc1cccc2c1N(O)C(=O)C(N)C2 (centres unmarked) [Example 33]
2,35.6,N[C@H]1Cc2ccc(OCc3ccccc3)cc2N(O)C1=O [Example 34]
3,49.2,N[C@H]1Cc2cc(Cl)cc(C(F)(F)F)c2N(O)C1=O [Example 35]
4,79.3,N[C@H]1Cc2cccc(F)c2N(O)C1=O [Example 36]
5,34.1,N[C@H]1Cc2cccc(OC(F)(F)F)c2N(O)C1=O [Example 37]
6,133,"NC1Cc2ccc(-c3cccc(OC(F)(F)F)c3)cc2N(O)C1=O (centres unmarked) [Example 38, 3-amino-1-hydroxy-7-[3-(trifluoromethoxy)phenyl]-3,4-dihydroquinolin-2(1H)-one, trifluoroacetate salt]"
7,136,"Cc1ccc(-c2ccc3c(c2)N(O)C(=O)C(N)C3)cc1 (centres unmarked) [Example 39, 3-amino-1-hydroxy-7-(4-methylphenyl)-3,4-dihydroquinolin-2(1H)-one, trifluoroacetate salt]"
8,122,"NC1Cc2ccc(-c3cccc(F)c3F)cc2N(O)C1=O (centres unmarked) [Example 40, 3-amino-7-(2,3-difluorophenyl)-1-hydroxy-3,4-dihydroquinolin-2(1H)-one, trifluoroacetate salt]"
9,257,"NC1Cc2ccc(-c3ccccc3OC(F)(F)F)cc2N(O)C1=O (centres unmarked) [Example 41, 3-amino-1-hydroxy-7-[2-(trifluoromethoxy)phenyl]-3,4-dihydroquinolin-2(1H)-one, trifluoroacetate salt]"
10,101,"NC1Cc2ccc(-c3ccccc3)cc2N(O)C1=O (centres unmarked) [Example 42, 3-amino-1-hydroxy-7-phenyl-3,4-dihydroquinolin-2(1H)-one, trifluoroacetate salt]"
11,133,"NC1Cc2ccc(-c3cc(Cl)ccc3Cl)cc2N(O)C1=O (centres unmarked) [Example 43, 3-amino-7-(2,5-dichlorophenyl)-1-hydroxy-3,4-dihydroquinolin-2(1H)-one, trifluoroacetate salt]"
12,118,"NC1Cc2ccc(-c3ccc(F)c(F)c3)cc2N(O)C1=O (centres unmarked) [Example 44, 3-amino-7-(3,4-difluorophenyl)-1-hydroxy-3,4-dihydroquinolin-2(1H)-one, trifluoroacetate salt]"
13,235,"NC1Cc2ccc(-c3ccccc3Cl)cc2N(O)C1=O (centres unmarked) [Example 45, 3-amino-7-(2-chlorophenyl)-1-hydroxy-3,4-dihydroquinolin-2(1H)-one, trifluoroacetate salt]"
14,128,"NC1Cc2ccc(-c3cccc(C(F)(F)F)c3)cc2N(O)C1=O (centres unmarked) [Example 46, 3-amino-1-hydroxy-7-[3-(trifluoromethyl)phenyl]-3,4-dihydroquinolin-2(1H)-one, trifluoroacetate salt]"
15,118,"Cc1cccc(-c2ccc3c(c2)N(O)C(=O)C(N)C3)c1C (centres unmarked) [Example 47, 3-amino-7-(2,3-dimethylphenyl)-1-hydroxy-3,4-dihydroquinolin-2(1H)-one, trifluoroacetate salt]"
16,523,"CN(C)c1ccc(-c2ccc3c(c2)N(O)C(=O)C(N)C3)cn1 (centres unmarked) [Example 48, 3-amino-7-[6-(dimethylamino)pyridin-3-yl]-1-hydroxy-3,4-dihydroquinolin-2(1H)-one, trifluoroacetate salt]"
17,105,"COc1ccc(-c2ccc3c(c2)N(O)C(=O)C(N)C3)cc1F (centres unmarked) [Example 49, 3-amino-7-(3-fluoro-4-methoxyphenyl)-1-hydroxy-3,4-dihydroquinolin-2(1H)-one, trifluoroacetate salt]"

row,IC50 [nM],SMILES
1,103,"NC1Cc2ccc(-c3cc(F)ccc3F)cc2N(O)C1=O (centres unmarked) [Example 50, 3-amino-7-(2,5-difluorophenyl)-1-hydroxy-3,4-dihydroquinolin-2(1H)-one, trifluoroacetate salt]"
2,101,"NC1Cc2ccc(-c3ccco3)cc2N(O)C1=O (centres unmarked) [Example 51, 3-amino-7-(2-furyl)-1-hydroxy-3,4-dihydroquinolin-2(1H)-one, trifluoroacetate salt]"
3,139,"NC1Cc2ccc(-c3cccc(Cl)c3)cc2N(O)C1=O (centres unmarked) [Example 52, 3-amino-7-(3-chlorophenyl)-1-hydroxy-3,4-dihydroquinolin-2(1H)-one, trifluoroacetate salt]"
4,206,"NC1Cc2ccc(-c3ccc(C(F)(F)F)cc3)cc2N(O)C1=O (centres unmarked) [Example 53, 3-amino-1-hydroxy-7-[4-(trifluoromethyl)phenyl]-3,4-dihydroquinolin-2(1H)-one, trifluoroacetate salt]"
5,137,"NC1Cc2ccc(-c3cc(Cl)ccc3F)cc2N(O)C1=O (centres unmarked) [Example 54, 3-amino-7-(5-chloro-2-fluorophenyl)-1-hydroxy-3,4-dihydroquinolin-2(1H)-one, trifluoroacetate salt]"
6,141,"CC(C)c1ccc(-c2ccc3c(c2)N(O)C(=O)C(N)C3)cc1 (centres unmarked) [Example 55, 3-amino-1-hydroxy-7-(4-isopropylphenyl)-3,4-dihydroquinolin-2(1H)-one, trifluoroacetate salt]"
7,91.1,"COc1ccc(-c2ccc3c(c2)N(O)C(=O)C(N)C3)cc1 (centres unmarked) [Example 56, 3-amino-1-hydroxy-7-(4-methoxyphenyl)-3,4-dihydroquinolin-2(1H)-one, trifluoroacetate salt]"
8,102,"CCOc1ccccc1-c1ccc2c(c1)N(O)C(=O)C(N)C2 (centres unmarked) [Example 57, 3-amino-7-(2-ethoxyphenyl)-1-hydroxy-3,4-dihydroquinolin-2(1H)-one, trifluoroacetate salt]"
9,174,"NC1Cc2ccc(-c3cc(Cl)cc(Cl)c3)cc2N(O)C1=O (centres unmarked) [Example 58, 3-amino-7-(3,5-dichlorophenyl)-1-hydroxy-3,4-dihydroquinolin-2(1H)-one, trifluoroacetate salt]"
10,156,"COc1ccc(F)cc1-c1ccc2c(c1)N(O)C(=O)C(N)C2 (centres unmarked) [Example 59, 3-amino-7-(5-fluoro-2-methoxyphenyl)-1-hydroxy-3,4-dihydroquinolin-2(1H)-one, trifluoroacetate salt]"
11,161,"CC(C)Oc1ccc(-c2ccc3c(c2)N(O)C(=O)C(N)C3)cc1 (centres unmarked) [Example 60, 3-amino-1-hydroxy-7-(4-isopropoxyphenyl)-3,4-dihydroquinolin-2(1H)-one, trifluoroacetate salt]"
12,162,"NC1Cc2ccc(-c3ccc(OC(F)(F)F)cc3)cc2N(O)C1=O (centres unmarked) [Example 61, 3-amino-1-hydroxy-7-[4-(trifluoromethoxy)phenyl]-3,4-dihydroquinolin-2(1H)-one, trifluoroacetate salt]"
13,135,"N#Cc1ccccc1-c1ccc2c(c1)N(O)C(=O)C(N)C2 (centres unmarked) [Example 62, 2-(3-amino-1-hydroxy-2-oxo-1,2,3,4-tetrahydroquinolin-7-yl)benzonitrile, trifluoroacetate salt]"
14,113,"Cc1cccc(-c2ccc3c(c2)N(O)C(=O)C(N)C3)c1 (centres unmarked) [Example 63, 3-amino-1-hydroxy-7-(3-methylphenyl)-3,4-dihydroquinolin-2(1H)-one, trifluoroacetate salt]"
15,141,"COc1ccc(-c2ccc3c(c2)N(O)C(=O)C(N)C3)cc1C (centres unmarked) [Example 64, 3-amino-1-hydroxy-7-(4-methoxy-3-methylphenyl)-3,4-dihydroquinolin-2(1H)-one, trifluoroacetate salt]"
16,155,"NC1Cc2ccc(-c3ccc4c(c3)CCO4)cc2N(O)C1=O (centres unmarked) [Example 65, 3-amino-7-(2,3-dihydro-1-benzofuran-5-yl)-1-hydroxy-3,4-dihydroquinolin-2(1H)-one, trifluoroacetate salt]"

# Same assay, conditions: Table 6; hKAT II, decrease in OD370, 37° C., 15-20 h; read-out: KATII IC50
row,IC50 [nM],SMILES
1,23.1,"N[C@H]1Cc2cc(Oc3ccccc3)cnc2N(O)C1=O [Example 66, (3S)-3-amino-1-hydroxy-6-phenoxy-3,4-dihydro-1,8-naphthyridin-2(1H)-one]"
2,42.1,"N[C@H]1Cc2cc(S(=O)(=O)c3ccccc3)ccc2N(O)C1=O [Example 67, (3S)-3-amino-1-hydroxy-6-(phenylsulfonyl)-3,4-dihydroquinolin-2(1H)-one, hydrochloride salt]"
3,42.7,"N[C@H]1Cc2cc(Cc3ccccc3)ccc2N(O)C1=O [Example 68, (3S)-3-amino-6-benzyl-1-hydroxy-3,4-dihydroquinolin-2(1H)-one, trifluoroacetic acid salt]"
4,43.3,"NC1Cc2cc(Oc3ccccc3Cl)ccc2N(O)C1=O (centres unmarked) [Example 69, 3-amino-6-(2-chlorophenoxy)-1-hydroxy-3,4-dihydroquinolin-2(1H)-one, hydrochloride salt]"
5,24.6,"N#Cc1cccc(Oc2ccc3c(c2)C[C@H](N)C(=O)N3O)c1 [Example 70, 3-{[(3S)-3-amino-1-hydroxy-2-oxo-1,2,3,4-tetrahydroquinolin-6-yl]oxy}benzonitrile, hydrochloride salt]"
6,151,"N[C@H]1Cc2cccc(CN3CCOCC3)c2N(O)C1=O [Example 74, (3S)-3-amino-1-hydroxy-8-(morpholin-4-ylmethyl)-3,4-dihydroquinolin-2(1H)-one, trifluoroacetic acid salt]"

row,SMILES,IC50 [nM]
1,"COc1cc2c(cc1Cc1ccccc1)C[C@H](N)C(=O)N2O [Example 75, (3S)-3-amino-6-benzyl-1-hydroxy-7-methoxy-3,4-dihydroquinolin-2(1H)-one, hydrochloride salt]",35.2
